Values after ≈ are worked out from the molar mass of the structure shown. Like-named read-outs stand apart in the source and are kept apart here.
Experiments:
[1] = Kinetic solubility (method of Hoelke et al.); format: physicochemical
Description: Park et al. have shown that the degree of saturation of fatty acids exerts a profound impact on permeability of fatty acylated peptides—a higher degree of unsaturation results in higher permeability.[43] PUFA can also induce significant biophysical perturbations upon incorporation into membrane phospholipids.[67],[68] […] Given that the hydrophobicity of fatty acyl residues in general reduces as the number of unsaturated sites increases,[69],[70] we decided to ascertain how such structural modifications translate to the kinetic solubility of the molecule as a whole. […] The acylation with PUFA thus provides an elegant, albeit counterintuitive, approach, by which permeability of the molecule as a whole as well as its capacity for liposomal encapsulation can be enhanced without completely abolishing its aqueous solubility.

hNOD2 = target: T1, hNOD2 (Homo sapiens, UniProt Q9HC29); experiment: HEK-Blue NOD2 cell line reporter assay (NF-κB-inducible SEAP); format: cell-based; details: for EC50: HEK-Blue NOD2 cells, 18 h
T1 construct: host or cells: HEK-Blue NOD2 cells (HEK293)
T1 sequence (Q9HC29 whole entry): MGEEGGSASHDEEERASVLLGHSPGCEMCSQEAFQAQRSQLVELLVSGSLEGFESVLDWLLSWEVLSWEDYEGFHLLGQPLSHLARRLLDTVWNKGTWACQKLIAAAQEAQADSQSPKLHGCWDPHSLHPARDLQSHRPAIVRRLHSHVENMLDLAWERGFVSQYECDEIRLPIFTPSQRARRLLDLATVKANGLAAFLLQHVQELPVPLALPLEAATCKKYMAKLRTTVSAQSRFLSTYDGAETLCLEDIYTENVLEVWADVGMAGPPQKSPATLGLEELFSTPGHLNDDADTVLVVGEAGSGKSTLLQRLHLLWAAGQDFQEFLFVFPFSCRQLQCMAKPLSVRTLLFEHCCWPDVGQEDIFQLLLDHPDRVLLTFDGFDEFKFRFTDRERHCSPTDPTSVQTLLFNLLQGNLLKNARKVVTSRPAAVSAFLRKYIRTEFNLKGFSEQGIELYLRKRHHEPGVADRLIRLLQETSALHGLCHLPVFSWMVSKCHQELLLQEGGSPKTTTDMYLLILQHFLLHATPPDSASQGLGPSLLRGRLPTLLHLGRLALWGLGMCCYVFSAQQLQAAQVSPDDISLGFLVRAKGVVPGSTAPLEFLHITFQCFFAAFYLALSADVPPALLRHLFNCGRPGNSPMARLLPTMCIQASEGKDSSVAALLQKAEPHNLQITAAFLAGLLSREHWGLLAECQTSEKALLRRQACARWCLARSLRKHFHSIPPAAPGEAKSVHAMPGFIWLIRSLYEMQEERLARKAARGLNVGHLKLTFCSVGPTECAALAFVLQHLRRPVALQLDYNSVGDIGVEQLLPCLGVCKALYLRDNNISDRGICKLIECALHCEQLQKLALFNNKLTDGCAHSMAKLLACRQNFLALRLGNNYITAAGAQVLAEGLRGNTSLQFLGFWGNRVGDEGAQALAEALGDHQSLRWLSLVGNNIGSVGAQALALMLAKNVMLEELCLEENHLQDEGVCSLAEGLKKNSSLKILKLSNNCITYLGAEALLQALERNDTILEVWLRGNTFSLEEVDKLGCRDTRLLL
Procedure: To assess the NOD2 agonistic potential of the synthesized desmuramylpeptides at a cellular level, we employed the HEK-Blue NOD2 cell line reporter assay, a validated and commercially available method. All synthesized compounds were evaluated for their dose-dependent activities to establish their EC50 values.
The HEK-Blue NOD1 and NOD2 cell line reporter assay was generated from HEK293 cells through cotransfection of the hNOD1 or hNOD2 gene, respectively, along with an NF-κB-inducible secreted embryonic alkaline phosphatase (SEAP) reporter gene. Upon activation of NOD1 or NOD2, NF-κB triggers the production of SEAP, which can be quantitatively measured colorimetrically. […] After 18 h of incubation at 37 °C with 5% CO2, SEAP activity was measured spectrophotometrically by absorbance at 630 nm (BioTek Synergy microplate reader; Winooski, VT, USA). EC50 values were determined using Prism software (version 9; GraphPad Software, CA, USA). Each experiment was conducted in duplicate and repeated in at least two independent biological replicates.

human PBMCs = experiment: Cytokine release from peripheral blood mononuclear cells (LEGENDplex panel); format: cell-based; details: 18 h
Description: The immunomodulatory effects of the selected desmuramylpeptides were examined in human primary peripheral blood mononuclear cells (PBMCs). This diverse mixture of immune cells provided a platform to investigate the effects of these NOD2 agonists within a physiologically relevant environment, encompassing other NOD2-interacting and downstream signaling proteins. […] Given that NOD2 activation often modulates the Toll-like receptor (TLR)-induced cytokine responses, we investigated the impact of combining desmuramylpeptides with lipopolysaccharide (LPS), a well-known TLR4 agonist, on cytokine secretion.[76]−[78]
The elicited cytokine profiles thus broadly reflect the structure–activity relationships obtained in the reporter gene assays.
Peripheral blood mononuclear cells were plated at a density of 1 × 10^6 cells/mL in 48-well plates containing 500 μL of growth medium. Cells were then treated with the compounds (2 μM) or the corresponding vehicle (0.1% DMSO), both in the absence and presence of LPS (10 ng/mL). Following an 18 h incubation period at 37 °C with 5% CO2, cell-free supernatants were collected and stored at −80 °C until analysis. […] Standard curves were constructed using recombinant cytokines provided in the kit. Data analysis was performed using Biolegend software Qognit and Prism (GraphPad, San Diego, CA, USA) software. The experiments were independently replicated four times. Statistical significance was determined using two-way analysis of variance (ANOVA) followed by Tukey’s multiple comparisons test.

PBMCs = experiment: Direct cytotoxic effect of compounds on PBMCs (Sytox blue); format: cell-based; details: Table S2
Procedure: Additionally, PBMCs and cancer cells alone were treated with desmuramylpeptides to assess any direct cytotoxic effects on these cells.
(§1) The PBMC cytotoxicity assays utilizing K562 cells were conducted following previously established methods, with some adjustments.[82] […] Meanwhile, K562 cells were stained with CFSE (Invitrogen, Carlsbad, CA, USA), washed twice with complete medium, and then added (1 × 10^4 cells per well) to the pretreated PBMCs to achieve a final effector cell to target tumor cell ratio of 40:1. Following a 4-h coincubation period at 37 °C with 5% CO2, cells were stained with Sytox blue dead cell stain (Invitrogen) and analyzed using an Attune NxT flow cytometer (Thermo Fisher Scientific, Waltham, MA, USA) along with FlowJo software (Tree Star, Inc., Ashland, OR, USA). Cells positive for both CFSE and Sytox blue were designated as dead K562 cells. PBMCs alone and CFSE-labeled cancer cells alone were also exposed to the compounds at equivalent concentrations and stained with Sytox blue to assess any direct cytotoxic effects of the compounds on PBMCs and cancer cells separately. Each experiment was conducted in duplicate and repeated in three independent biological replicates. Statistical analysis was performed using one-way ANOVA followed by Dunnett’s multiple comparisons test.

K562 cancer cells = experiment: PBMC cytotoxicity against K562 cancer cells (flow cytometry); format: cell-based
Procedure: In this study, we investigated the potential of desmuramylpeptides, both alone and in combination with LPS, to enhance the cytotoxic activity of PBMCs against cancer cells employing a flow-cytometry-based cytotoxicity assay based on coincubation of preactivated PBMCs with fluorescently labeled K562 cancer cells.[82] Among the diverse subpopulations within PBMCs, natural killer (NK) cells play a pivotal role in detecting and eliminating cancer cells. NOD2-mediated NK cell activity against cancer cells arises from both direct NOD2 agonist elicited cytolytic activity of NK cells[83] and indirect activation through cytokine release by other NOD2-responsive cells, such as monocytes, which comprise approximately 10% of PBMCs; such interactions potentially reinforce the immune response.[84] […] To that end, we utilized the entire PBMC population as effector cells rather than isolated NK cells, to mimic conditions more closely resembling the in vivo environment while K562 chronic myelogenous leukemia cells were used as the target cells in a 40:1 effector to target cell ratio.[87]
as §1

[2] = NF-κB transcriptional activity (SEAP), read-out: EC50 (nM), NOD2 agonistic activity

## CCOC(=O)CC[C@@H](NC(=O)[C@@H](NC(=O)CNC(=O)/C=C/c1ccc(O)c(OC)c1)C(C)C)C(=O)OCC [Compound 1]
[1]
  solubility kinetic: 417 µM (≈ 223 µg/mL)

## CCCCCCCCCCCCCCCC(=O)Oc1ccc(/C=C/C(=O)NCC(=O)N[C@H](C(=O)N[C@H](CCC(=O)OCC)C(=O)OCC)C(C)C)cc1OC [Compound 9, Diethyl ((E)-3-(3-Methoxy-4-(palmitoyloxy)phenyl)acryloyl)glycyl-L-valyl-D-glutamate]
[1]
  Kinetic solubility: insoluble
hNOD2; [2]
  EC50: 382 ± 121 nM

## CCCCCCCC/C=C\CCCCCCCC(=O)Oc1ccc(/C=C/C(=O)NCC(=O)N[C@H](C(=O)N[C@H](CCC(=O)OCC)C(=O)OCC)C(C)C)cc1OC [Compound 18, Diethyl ((E)-3-(3-Methoxy-4-(oleoyloxy)phenyl)acryloyl)glycyl-L-valyl-D-glutamate]
hNOD2; EC50 ratio versus 10 (stearoyl)
  increase in potency compared to saturated counterpart 10: 17 fold
hNOD2; [2]
  EC50: 422 ± 120 nM

## CCCCC/C=C\C/C=C\CCCCCCCC(=O)Oc1ccc(/C=C/C(=O)NCC(=O)N[C@H](C(=O)N[C@H](CCC(=O)OCC)C(=O)OCC)C(C)C)cc1OC [Compound 19, Diethyl ((E)-3-(3-Methoxy-4-(((9Z,12Z)-octadeca-9,12-dienoyl)oxy)phenyl)acryloyl)glycyl-L-valyl-D-glutamate]
hNOD2; [2]
  EC50: 198 ± 39.1 nM

## CC/C=C\C/C=C\C/C=C\CCCCCCCC(=O)Oc1ccc(/C=C/C(=O)NCC(=O)N[C@H](C(=O)N[C@H](CCC(=O)OCC)C(=O)OCC)C(C)C)cc1OC [Compound 20, Diethyl ((E)-3-(3-Methoxy-4-(((9Z,12Z,15Z)-octadeca-9,12,15-trienoyl)oxy)phenyl)acryloyl)glycyl-L-valyl-D-glutamate]
hNOD2; [2]
  EC50: 135 ± 28.9 nM

## CCCCC/C=C\C/C=C\C/C=C\CCCCC(=O)Oc1ccc(/C=C/C(=O)NCC(=O)N[C@H](C(=O)N[C@H](CCC(=O)OCC)C(=O)OCC)C(C)C)cc1OC [Compound 21, Diethyl ((E)-3-(3-Methoxy-4-(((6Z,9Z,12Z)-octadeca-6,9,12-trienoyl)oxy)phenyl)acryloyl)glycyl-L-valyl-D-glutamate]
hNOD2; [2]
  EC50: 205 ± 28.6 nM

## CC/C=C\C/C=C\C/C=C\C/C=C\C/C=C\C/C=C\CCC(=O)Oc1ccc(/C=C/C(=O)NCC(=O)N[C@H](C(=O)N[C@H](CCC(=O)OCC)C(=O)OCC)C(C)C)cc1OC [Compound 22, Diethyl ((E)-3-(4-(((4Z,7Z,10Z,13Z,16Z,19Z)-Docosa-4,7,10,13,16,19-hexaenoyl)oxy)-3-methoxyphenyl)acryloyl)glycyl-L-valyl-D-glutamate]
hNOD2; [2]
  EC50: 200 ± 50.8 nM

## CCOC(=O)CC[C@@H](NC(=O)[C@@H](NC(=O)CNC(=O)/C=C/c1ccc(OC(=O)CCCCCCCCCCCCCO)c(OC)c1)C(C)C)C(=O)OCC [Compound 24, Diethyl ((E)-3-(4-((14-Hydroxytetradecanoyl)oxy)-3-methoxyphenyl)acryloyl)glycyl-L-valyl-D-glutamate]
hNOD2; EC50 ratio versus unsubstituted myristoylated 8
  boost of NOD2 agonistic activity compared to 8: 6 fold
hNOD2; [2]
  EC50: 12.3 ± 1.5 nM

## CCOC(=O)[C@@H](CCC(=O)NCCCCN)NC(=O)[C@@H](NC(=O)CNC(=O)/C=C/c1ccc(O)c(OC)c1)C(C)C [Compound 30, Ethyl N^5-(4-Aminobutyl)-N^2-((E)-3-(4-hydroxy-3-methoxyphenyl)acryloyl)glycyl-L-valyl-D-glutaminate]
hNOD2; [2]
  EC50: > 10000 nM

## CCOC(=O)[C@@H](CCC(=O)NCCCNCCCCNCCCN)NC(=O)[C@@H](NC(=O)CNC(=O)/C=C/c1ccc(O)c(OC)c1)C(C)C [Compound 32, N^5-(3-((4-((3-Aminopropyl)amino)butyl)amino)propyl)-N^2-((E)-3-(4-hydroxy-3-methoxyphenyl)acryloyl)glycyl-L-valyl-D-glutaminate]
Human PBMCs; 2 μM + LPS 10 ng/mL
  amounts of IL-1β, IL-6, IL-10, TNF-α and IFN-γ compared to the MDP/LPS combination: lesser amounts
  levels of LPS-induced IL-10: opposite
  levels of secreted MCP-1 compared to the MDP/LPS combination: on par
Human PBMCs; 2 μM alone (no LPS)
  production of proinflammatory cytokines and chemokines including IL-6, IL-8 and MCP-1: smaller increases
PBMCs; 10 μM + LPS 1 μg/mL
  Percent of dead PBMCs, + LPS: 7.20% ± 0.36%
PBMCs; alone: compounds 10 μM, LPS 1 μg/mL, IL-2 200 U/mL
  Percent of dead PBMCs: 1.01% ± 0.22%
K562 cancer cells; 10 μM + LPS 1 μg/mL, 18 h, then 4 h coincubation, 40:1
  cytotoxicity of PBMCs against K562 cells, cotreatment with LPS (relative to negative control): 2.95 fold
K562 cancer cells; Table S2, 10 μM + LPS 1 μg/mL
  Cytotoxicity (ratio to control), + LPS: 2.95 ± 0.41
K562 cancer cells; Table S2, alone: compounds 10 μM, LPS 1 μg/mL, IL-2 200 U/mL
  Cytotoxicity (ratio to control): 1.10 ± 0.06
K562 cancer cells; alone: compounds 10 μM, LPS 1 μg/mL, IL-2 200 U/mL, 18 h, then 4 h coincubation, effector:target 40:1
  enhancement of cytotoxicity of PBMCs against K562 cells (relative to negative control): devoid of the capacity to induce cytotoxicity
hNOD2; [2]
  EC50: 8640 ± 1920 nM
hNOD2; read-out: EC50, NOD2 agonistic activity (text)
  EC50: 8600 nM

## CCOC(=O)[C@@H](CCC(=O)NCCCNCCCCN)NC(=O)[C@@H](NC(=O)CNC(=O)/C=C/c1ccc(O)c(OC)c1)C(C)C [Compound 34, Ethyl N^5-(3-((4-Aminobutyl)amino)propyl)-N^2-((E)-3-(4-hydroxy-3-methoxyphenyl)acryloyl)glycyl-L-valyl-D-glutaminate]
hNOD2; [2]
  EC50: > 10000 nM

## CCOC(=O)[C@@H](CCC(=O)OCCN1CCOCC1)NC(=O)[C@@H](NC(=O)CNC(=O)/C=C/c1ccc(O)c(OC)c1)C(C)C [Compound 35, 1-Ethyl 5-(2-Morpholinoethyl) ((E)-3-(4-hydroxy-3-methoxyphenyl)acryloyl)glycyl-L-valyl-D-glutamate]
[1]
  solubility kinetic: 209 µM (≈ 130 µg/mL)
hNOD2; [2]
  EC50: 356 ± 24 nM
hNOD2; ethyl ester replaced with morpholinoethyl
  drop in activity compared to 1: 4 factor

## CCOC(=O)CC[C@@H](NC(=O)[C@@H](NC(=O)CNC(=O)/C=C/c1cc(OC)c(O)c(OC)c1)C(C)C)C(=O)OCC [Compound 37, Diethyl ((E)-3-(4-Hydroxy-3,5-dimethoxyphenyl)acryloyl)glycyl-L-valyl-D-glutamate]
[1]
  solubility kinetic: 321 µM (≈ 182 µg/mL)
hNOD2; [2]
  EC50: 96.1 ± 51.5 nM

Reference: PMC11472310, “Distinctive Immune Signatures Driven by Structural Alterations in Desmuramylpeptide NOD2 Agonists” (Journal of Medicinal Chemistry, 2024)
